Test results published in patent US8372840B2, “Potassium channel blockers” (Xention Limited, priority 2008, dated 2013).

Experiments:
human Kv1.3 = biological target: T1, human Kv1.3 (Homo sapiens, UniProt P22001); assay: Kv1.3 Autopatch Electrophysiology (whole cell patch-clamp, stably transfected CHO cells); format: cell-based; settings: compound 1 μM, step to +30 mV for 500 ms, inhibition of total charge relative to control, room temperature; for inhibition at 1 µM: CHO, read-out: hKv1.3 % inh.
T1 construct: expressed in transfected cells; host or cells: stably transfected cells grown in medium for CHO cells
Description: Cells stably transfected with cDNA for human Kv1.3 (in pcDNA3.1) were grown in Ex-cell 302 serum-free medium for CHO cells, supplemented with 10 μl/ml [100×] glutamine, 500 μg/ml G418 ([…]), and 1% HT supplement (50×, hypoxanthine and thymidine). Compounds were tested on these cells using the AutoPatch technology in whole cell mode.
The external bathing solution contained (in mM): 150 NaCl, 10 KCl, 1 MgCl2, 3 CaCl2, 10 HEPES, pH 7.4 with NaOH. Patch pipettes were filled with an electrode solution of composition (in mM): 100 K-Gluconate, 20 KCl, 1 MgCl2, 1 CaCl2, 10 HEPES, 11 EGTA, 5 ATP-Na2, 2 Glutathione pH 7.2 with KOH.
Compounds were dissolved in DMSO (100%) and made up in the external bather at a concentration of 1 μM immediately prior to use. All experiments were conducted at room temperature.
A cell suspension (10 ml), with a density of 6×10^6 cells, was aliquoted into a 15 ml centrifuge tube and stored at 4° C. before use. Prior to use a tube was taken and centrifuged at 1000 rpm for 4 mins at room temperature. The supernatant was then discarded, leaving a cell pellet at the bottom of the tube. The pellet was then resuspended using 1 ml of cold (4° C.), filtered (0.22 μm), 0.05% BSA/bather solution (0.05 g BSA/100 ml bather). The bottom of the tube was manually agitated followed by gentle tituration. The cell suspension was then placed in the AutoPatch™ temperature controlled cell-hotel at 14° C. and regularly titurated.
A length of Teflon capillary tubing was dipped into the cell suspension solution, and a column of fluid was taken up by negative pressure. The column of fluid was in electrically connectivity with a Ag/AgCl reference electrode. Borosilicate glass patch pipettes (from 1.5 mm OD, thin-walled filamented, GC150-TF capillary glass, Harvard) were pulled using a DMZ pipette puller (Zeitz Instruments), and were back-filled using the internal pipette solution, being careful that no bubbles remained at the tip or in the body of the pipette. Patch pipettes typically had resistances of 2.5-3.5 MΩ. Once filled, the pipette tip and a proportion of the shaft (˜15 mm) were dipped into Sigmacote (Sigma). The recording pipettes were placed in a multiwell array and mounted on the AutoPatch™ machine. Automated patch-clamping and drug-application was initiated by the operator, but thereafter AutoPatch.exe continued the experiment providing that pre-set conditions and criteria were satisfied.
Whole cell patch-clamp recordings were made using the AutoPatch™ rig, which incorporated an EPC9 or EPC10 amplifier (HEKA, Germany) under control of Pulse software (v8.54 or v8.76, HEKA, Germany), a cell applicator, automated drug application system (DAS), valve controller (VF1) and a suction device all at room temperature. This equipment was completely under the control of AutoPatch.exe and operator intervention was only made when there was a requirement to refill the bather reservoirs or to prevent the loss of a cell due to a technical error.
Qualification stages prior to perfusion and drug application ensured that the observed current met the criteria for the experiment. Cells were continuously perfused with external solution at a flow rate of ˜2 ml/minute.
Electrophysiology voltage-step protocols and analysis of data was performed as follows. Data were sampled at 5 kHz, and filtered with a −3 dB bandwidth of 2.5 kHz. Cells were held at a voltage of −80 mV. Currents were evoked by a voltage step to +30 mV for 500 ms in duration applied every 15 s. Online analysis of the hKv1.3 current during the application of compounds was performed by the Pulse (v8.54 or v8.76, HEKA, Germany), Excel (Microsoft, USA) and AutoPatch™ software, with the total charge measured during the whole of voltage step Inhibition of charge movement in the presence of drug was calculated relative to control.

hKv1.5 = hKv1.5 (Homo sapiens, UniProt P22460); assay: Kv1.5 Autopatch Electrophysiology (whole cell patch-clamp); format: cell-based; settings: compound 1 μM, step to 0 mV for 1000 ms, total charge, room temperature (22-24° C.); for inhibition at 1 µM: read-out: hKv1.5 % inh.
Description: The external bathing solution contained (in mM): 150 NaCl, 10 KCl, […], 3 MgCl2, 1 CaCl2, 10 HEPES, pH 7.4. Patch pipettes were filled with an electrode solution of composition (in mM): 160 KCl, 0.5 MgCl2, 10 HEPES, 1 EGTA, pH 7.4 with KOH.
Compounds were dissolved in DMSO (100%) and made up in the external bather at a concentration of 1 μM. All experiments were conducted at room temperature (22-24° C.).
A cell suspension (10 ml), with a density of 100,000 cells/ml, was aliquoted into a 15 ml centrifuge tube and transferred to an incubator (37° C., 5% CO2) for approximately one hour before use. Following 60 min incubation, a tube was taken and centrifuged at 1000 rpm for 4 mins at room temperature. 9.5 ml supernatant was thence discarded, leaving a cell pellet at the bottom of the tube. The pellet was then resuspended using 100 μl of cold (4° C.), filtered (0.22 μm), 0.2% BSA/bather solution (0.02 g BSA/10 ml bather). The bottom of the tube was manually agitated gently until the solution became cloudy with cells. The 100 μl cell resuspension solution was then stored on the bench at 4° C. (using a Peltier-based temperature control device) until used.
A length of capillary glass (1B150E-4, WPI) was dipped into the cell suspension solution, such that ˜3 cm column of fluid was taken up by capillary action. A Ag/AgCl wire was dropped into the non-dipped end of the capillary also. The outside of the solution-filled end of the capillary was then dried and the capillary was loaded into the AutoPatch™
Borosilicate glass patch pipettes (from 1.5 mm OD, thin-walled filamented, GC150-TF capillary glass, Harvard) were pulled using a DMZ pipette puller (Zeitz Instruments), and were back-filled using the internal pipette solution, being careful that no bubbles remain at the tip or in the body of the pipette. Patch pipettes typically had resistances of 2.3-3.5 MΩ. Once filled, the pipette tip and a proportion of the shaft (˜15 mm) were dipped into Sigmacote (Sigma). The recording pipette was then loaded into the AutoPatch™. Automated patch-clamping was initiated by the operator, but thereafter AutoPatch.exe continued the experiment providing that pre-set conditions and criteria were satisfied.
Whole cell patch-clamp recordings were made using the AutoPatch™ rig, which incorporated an EPC9 amplifier (HEKA, Germany) under control of Pulse software (v8.54, HEKA, Germany), a motion controller with 2 translators (Newport, UK), valve controller (VF1) and a c-level suction device all at room temperature (22-24° C.). This equipment was completely under the control of AutoPatch.exe and operator intervention was only made when there was a requirement to refill the drug reservoirs or to prevent the loss of a cell due to a technical error. Cells with an Rseries greater than 18 MΩ were discounted from the experiment.
Qualification stages prior to perfusion and drug application ensured that the observed current met the criteria for the experiment. Only those cells with an IK>500 pA were used for experiments. Cells were continuously perfused with external solution at a flow rate of 1.8-2 ml/minute. […] Online analysis of the hKv1.5 current during the application of compounds was performed by the AutoPatch™ software. Voltage-step protocols and analysis of data was performed as described for conventional electrophysiology.
Electrophysiology voltage-step protocols and analysis of data was performed as follows. Data was sampled at 5 kHz, and filtered with a −3 dB bandwidth of 2.5 kHz. Cells were held at a voltage of −80 mV. Currents were evoked to a voltage step for 1000 ms in duration at 0 mV every 5 s. Currents were analysed using Pulsefit software (v8.54, HEKA, Germany), with the total charge measured during the whole of the voltage step. All other plots were produced using Igor Pro (WaveMetrics).

Chain of hKv1.5 (P22460 whole entry): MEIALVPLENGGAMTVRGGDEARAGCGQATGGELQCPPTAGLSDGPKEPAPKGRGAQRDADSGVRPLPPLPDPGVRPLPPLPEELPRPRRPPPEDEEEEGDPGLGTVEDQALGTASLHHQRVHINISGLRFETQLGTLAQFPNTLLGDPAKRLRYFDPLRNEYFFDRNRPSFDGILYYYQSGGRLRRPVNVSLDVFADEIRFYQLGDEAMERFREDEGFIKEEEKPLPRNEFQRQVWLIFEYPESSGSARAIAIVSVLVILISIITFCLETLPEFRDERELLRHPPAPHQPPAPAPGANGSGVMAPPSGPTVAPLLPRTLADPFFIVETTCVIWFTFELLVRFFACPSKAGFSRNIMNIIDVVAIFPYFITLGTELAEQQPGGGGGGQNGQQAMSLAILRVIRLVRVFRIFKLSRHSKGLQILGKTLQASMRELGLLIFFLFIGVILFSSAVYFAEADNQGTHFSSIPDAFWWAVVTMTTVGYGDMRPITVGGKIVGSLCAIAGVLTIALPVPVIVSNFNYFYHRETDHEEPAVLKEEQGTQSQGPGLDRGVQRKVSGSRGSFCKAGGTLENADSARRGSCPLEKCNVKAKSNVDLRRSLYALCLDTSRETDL
T1 sequence (P22001 whole entry): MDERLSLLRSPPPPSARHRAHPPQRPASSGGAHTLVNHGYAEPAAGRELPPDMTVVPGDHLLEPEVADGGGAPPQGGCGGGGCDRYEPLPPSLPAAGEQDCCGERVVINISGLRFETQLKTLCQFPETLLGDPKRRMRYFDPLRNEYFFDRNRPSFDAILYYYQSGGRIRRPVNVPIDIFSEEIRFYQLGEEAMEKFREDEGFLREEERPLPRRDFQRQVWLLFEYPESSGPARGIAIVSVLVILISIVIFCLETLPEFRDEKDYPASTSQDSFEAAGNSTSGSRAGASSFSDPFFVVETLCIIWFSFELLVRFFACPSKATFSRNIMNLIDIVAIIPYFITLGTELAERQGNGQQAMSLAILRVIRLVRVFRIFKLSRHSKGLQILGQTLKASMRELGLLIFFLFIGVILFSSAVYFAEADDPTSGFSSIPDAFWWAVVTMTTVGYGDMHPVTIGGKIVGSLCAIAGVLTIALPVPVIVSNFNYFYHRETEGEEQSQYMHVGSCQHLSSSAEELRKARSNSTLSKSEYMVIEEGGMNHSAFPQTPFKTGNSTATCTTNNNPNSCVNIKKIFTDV

inhibition at 1 µM (human Kv1.3) [%] | inhibition at 1 µM (hKv1.5) [%] | Molecule | hKv1.3 % inh. (human Kv1.3) [%] | hKv1.5 % inh. (hKv1.5) [%]
94 | 79 | Cn1ccc(S(=O)(=O)N(Cc2ccc(Cl)cc2)c2cccc(OCC(=O)NC3CCC3)c2)n1 [Example 50, 2-{3-[(4-Chloro-benzyl)-(1-methyl-1H-pyrazole-3-sulfonyl)-amino]-phenoxy}-N-cyclobutyl-acetamide] | – | –
83 | 72 | Cn1ccc(S(=O)(=O)N(Cc2ccc(Cl)cc2)c2cccc(OCC(=O)NC3CC3)c2)n1 [Example 51, 2-{3-[(4-Chloro-benzyl)-(1-methyl-1H-pyrazole-3-sulfonyl)-amino]-phenoxy}-N-cyclopropyl-acetamide] | – | –
– | – | N-(4-Chloro-benzyl)-3-cyano-4-fluoro-N-[3-(2-oxo-imidazolidin-1-yl)-phenyl]-benzenesulfonamide [Example 45] | 100 | 95
– | – | N-Benzyl-3-cyano-4-fluoro-N-[3-(2-oxo-imidazolidin-1-yl)-phenyl]-benzenesulfonamide [Example 44] | 90 | 72
– | – | N-[3-(Benzenesulfonyl-benzyl-amino)-phenyl]-acetamide [Example 10] | 50 | 28
– | – | Pyridine-3-sulfonic acid (4-chloro-benzyl)-[3-(2-oxo-imidazolidin-1-ylbenzyl)-[3-(2-oxo-imidazolidin-1-yl)-phenyl]-amide [Example 48] | 96 | 89
– | – | Pyridine-3-sulfonic acid benzyl-[3-(2-oxo-imidazolidin-1-yl)-phenyl]-a(2-oxo-imidazolidin-1-yl)-phenyl]-amide [Example 47] | 74 | 51
– | – | Pyridine-3-sulfonic acid benzyl-[3-(4-phenyl-piperazin-1-yl)-phenyl]-amide [Example 16] | 97 | 91
